US8802849B2, “Tricyclic benzo[4,5]thieno-[2,3-d]pyrimidine-4-yl-amin derivatives, their salts, process for producing the compounds and their pharmaceutical use” (Vichem Chemie Kutató Kft., priority 2008, dated 2014)

Biological target: PDGFR-beta (Homo sapiens, UniProt P09619)
Experiment: PDGFR-beta kinase assay
Assay type: biochemical
Conditions: 10 μM compound; read-out: PDGFR-beta percent of inhibition
How it was run: (§1)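 Radiometric assay at 10 μM compound: kinase set for 10% ATP turnover, ATP at KmATP plus [γ-33P]ATP 12.5 μCi/ml, substrate at 5-fold over Km. Incubated 1 hour at room temperature, EDTA stop, filter capture and 33P counting.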

| SMILES | inhibition at 10 µM |
| --- | --- |
| Nc1ccc(Nc2ncnc3sc4c(c23)CCCC4)cc1 [Compound 8, N-(5,6,7,8-Tetrahydro-benzo[4,5]thieno[2,3-d]pyrimidin-4-yl)-benzene-1,4-diamine] | 6% |

Biological target: CDK2/CycA (Homo sapiens, UniProt P24941)
Experiment: CDK2/CycA kinase assay
Assay type: biochemical
Conditions: 10 μM compound; read-out: CDK2/CycA percent of inhibition
How it was run: as §1

| SMILES | inhibition at 10 µM |
| --- | --- |
| Nc1ccc(Nc2ncnc3sc4c(c23)CCCC4)cc1 [Compound 8, N-(5,6,7,8-Tetrahydro-benzo[4,5]thieno[2,3-d]pyrimidin-4-yl)-benzene-1,4-diamine] | 12% |

Biological target: Kit (Homo sapiens, UniProt P10721)
Sequence (P10721 26-976, species assumed): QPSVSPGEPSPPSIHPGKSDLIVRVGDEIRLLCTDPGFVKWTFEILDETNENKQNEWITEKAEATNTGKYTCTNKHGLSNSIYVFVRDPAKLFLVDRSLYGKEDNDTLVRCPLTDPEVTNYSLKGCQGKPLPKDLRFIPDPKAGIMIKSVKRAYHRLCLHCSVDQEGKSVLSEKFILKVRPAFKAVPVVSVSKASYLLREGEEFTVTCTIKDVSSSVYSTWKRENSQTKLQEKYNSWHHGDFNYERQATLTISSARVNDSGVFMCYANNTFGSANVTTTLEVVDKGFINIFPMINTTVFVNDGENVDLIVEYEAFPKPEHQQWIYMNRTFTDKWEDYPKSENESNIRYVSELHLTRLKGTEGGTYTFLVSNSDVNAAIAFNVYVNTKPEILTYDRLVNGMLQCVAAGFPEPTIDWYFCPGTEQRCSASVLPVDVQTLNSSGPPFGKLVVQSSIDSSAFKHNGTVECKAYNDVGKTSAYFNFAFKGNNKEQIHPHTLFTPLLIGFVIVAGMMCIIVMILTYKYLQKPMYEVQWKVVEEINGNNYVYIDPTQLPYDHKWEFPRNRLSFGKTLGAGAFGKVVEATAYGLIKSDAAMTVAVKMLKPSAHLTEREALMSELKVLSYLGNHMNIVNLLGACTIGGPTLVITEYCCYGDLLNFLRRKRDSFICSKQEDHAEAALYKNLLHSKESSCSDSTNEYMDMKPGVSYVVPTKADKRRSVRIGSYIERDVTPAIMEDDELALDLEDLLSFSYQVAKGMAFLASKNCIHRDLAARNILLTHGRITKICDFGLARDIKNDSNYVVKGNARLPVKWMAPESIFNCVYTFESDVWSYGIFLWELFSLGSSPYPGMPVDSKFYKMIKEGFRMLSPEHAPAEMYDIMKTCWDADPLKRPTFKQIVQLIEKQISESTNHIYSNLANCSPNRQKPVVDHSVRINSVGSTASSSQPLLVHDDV
Experiment: Kit kinase assay
Assay type: biochemical
Conditions: 10 μM compound; read-out: Kit percent of inhibition
How it was run: as §1

| SMILES | inhibition at 10 µM |
| --- | --- |
| Nc1ccc(Nc2ncnc3sc4c(c23)CCCC4)cc1 [Compound 8, N-(5,6,7,8-Tetrahydro-benzo[4,5]thieno[2,3-d]pyrimidin-4-yl)-benzene-1,4-diamine] | 20% |

Biological target: ROCK2 (Homo sapiens, UniProt O75116)
Experiment: ROCK2 kinase assay
Assay type: biochemical
Conditions: 10 μM compound; read-out: ROCK2 percent of inhibition
How it was run: as §1

| SMILES | inhibition at 10 µM |
| --- | --- |
| Nc1ccc(Nc2ncnc3sc4c(c23)CCCC4)cc1 [Compound 8, N-(5,6,7,8-Tetrahydro-benzo[4,5]thieno[2,3-d]pyrimidin-4-yl)-benzene-1,4-diamine] | -11% |

Biological target: GSK-3beta (Homo sapiens, UniProt P49841)
Experiment: GSK-3beta kinase assay
Assay type: biochemical
Conditions: 10 μM compound; read-out: GSK-3beta percent of inhibition
How it was run: as §1

| SMILES | inhibition at 10 µM |
| --- | --- |
| Nc1ccc(Nc2ncnc3sc4c(c23)CCCC4)cc1 [Compound 8, N-(5,6,7,8-Tetrahydro-benzo[4,5]thieno[2,3-d]pyrimidin-4-yl)-benzene-1,4-diamine] | 8% |

Biological target: Jnk1a1 (Homo sapiens, UniProt P45983)
Sequence (P45983 1-384 isoform P45983-2): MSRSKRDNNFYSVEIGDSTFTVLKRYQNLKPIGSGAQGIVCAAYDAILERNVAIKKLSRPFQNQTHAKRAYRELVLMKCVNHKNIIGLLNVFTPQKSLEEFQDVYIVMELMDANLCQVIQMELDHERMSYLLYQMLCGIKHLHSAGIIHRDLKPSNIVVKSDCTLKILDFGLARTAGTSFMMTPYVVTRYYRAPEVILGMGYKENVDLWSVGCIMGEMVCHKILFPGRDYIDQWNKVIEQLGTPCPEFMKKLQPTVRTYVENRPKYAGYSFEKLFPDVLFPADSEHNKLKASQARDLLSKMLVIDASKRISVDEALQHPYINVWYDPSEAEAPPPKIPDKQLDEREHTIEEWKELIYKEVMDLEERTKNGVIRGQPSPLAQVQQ
Experiment: Jnk1a1 kinase assay
Assay type: biochemical
Conditions: 10 μM compound; read-out: Jnk1a1 percent of inhibition
How it was run: as §1

| SMILES | inhibition at 10 µM |
| --- | --- |
| Nc1ccc(Nc2ncnc3sc4c(c23)CCCC4)cc1 [Compound 8, N-(5,6,7,8-Tetrahydro-benzo[4,5]thieno[2,3-d]pyrimidin-4-yl)-benzene-1,4-diamine] | 20% |

Biological target: cMet (Homo sapiens, UniProt P08581)
Experiment: cMet kinase assay
Assay type: biochemical
Conditions: 10 μM compound; read-out: cMet percent of inhibition
How it was run: as §1

| SMILES | inhibition at 10 µM |
| --- | --- |
| Nc1ccc(Nc2ncnc3sc4c(c23)CCCC4)cc1 [Compound 8, N-(5,6,7,8-Tetrahydro-benzo[4,5]thieno[2,3-d]pyrimidin-4-yl)-benzene-1,4-diamine] | 9% |

Biological target: EGFR (Homo sapiens, UniProt P00533)
Experiment: EGFR kinase assay (33P-ATP filter plate)
Assay type: biochemical
Conditions: 10 μM compound; read-out: EGFR percent of inhibition
How it was run: as §1

| SMILES | inhibition at 10 µM |
| --- | --- |
| Nc1ccc(Nc2ncnc3sc4c(c23)CCCC4)cc1 [Compound 8, N-(5,6,7,8-Tetrahydro-benzo[4,5]thieno[2,3-d]pyrimidin-4-yl)-benzene-1,4-diamine] | 96% |

Biological target: P56Lck (Homo sapiens, UniProt P06239)
Sequence (P06239 whole entry, species assumed): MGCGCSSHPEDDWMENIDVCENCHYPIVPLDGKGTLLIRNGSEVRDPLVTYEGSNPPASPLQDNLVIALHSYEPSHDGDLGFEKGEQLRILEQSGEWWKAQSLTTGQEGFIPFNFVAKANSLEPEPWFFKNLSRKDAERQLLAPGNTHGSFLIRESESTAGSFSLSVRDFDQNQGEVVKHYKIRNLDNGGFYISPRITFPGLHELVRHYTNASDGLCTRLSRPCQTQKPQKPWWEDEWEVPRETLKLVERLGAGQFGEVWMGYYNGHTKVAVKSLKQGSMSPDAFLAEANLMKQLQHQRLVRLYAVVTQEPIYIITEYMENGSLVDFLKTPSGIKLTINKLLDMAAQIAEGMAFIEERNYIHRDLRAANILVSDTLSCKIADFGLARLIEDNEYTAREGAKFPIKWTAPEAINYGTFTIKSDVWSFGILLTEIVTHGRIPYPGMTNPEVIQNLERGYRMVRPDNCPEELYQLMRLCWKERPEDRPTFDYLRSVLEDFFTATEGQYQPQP
Experiment: P56Lck kinase assay
Assay type: biochemical
Conditions: 10 μM compound; read-out: P56Lck percent of inhibition
How it was run: as §1

| SMILES | inhibition at 10 µM |
| --- | --- |
| Nc1ccc(Nc2ncnc3sc4c(c23)CCCC4)cc1 [Compound 8, N-(5,6,7,8-Tetrahydro-benzo[4,5]thieno[2,3-d]pyrimidin-4-yl)-benzene-1,4-diamine] | 2% |

Biological target: c-Src (Homo sapiens, UniProt P12931)
Experiment: c-Src kinase assay
Assay type: biochemical
Conditions: 10 μM compound; read-out: c-Src percent of inhibition
How it was run: as §1

| SMILES | inhibition at 10 µM |
| --- | --- |
| Nc1ccc(Nc2ncnc3sc4c(c23)CCCC4)cc1 [Compound 8, N-(5,6,7,8-Tetrahydro-benzo[4,5]thieno[2,3-d]pyrimidin-4-yl)-benzene-1,4-diamine] | 16% |

Tested on: not given
Experiment: not given
Conditions: not given

| SMILES | melting point |
| --- | --- |
| Nc1ccc(Nc2ncnc3sc4c(c23)CCCC4)cc1 [Compound 8, N-(5,6,7,8-Tetrahydro-benzo[4,5]thieno[2,3-d]pyrimidin-4-yl)-benzene-1,4-diamine] | 203.1 °C |

Biological target: RSK1 (Homo sapiens, UniProt Q15418)
Experiment: RSK1 kinase assay
Assay type: biochemical
Conditions: 10 μM compound; read-out: RSK1 percent of inhibition
How it was run: as §1

| SMILES | inhibition at 10 µM |
| --- | --- |
| Nc1ccc(Nc2ncnc3sc4c(c23)CCCC4)cc1 [Compound 8, N-(5,6,7,8-Tetrahydro-benzo[4,5]thieno[2,3-d]pyrimidin-4-yl)-benzene-1,4-diamine] | 6% |

Biological target: InsR (Homo sapiens, UniProt P06213)
Sequence (P06213 28-1382, species assumed): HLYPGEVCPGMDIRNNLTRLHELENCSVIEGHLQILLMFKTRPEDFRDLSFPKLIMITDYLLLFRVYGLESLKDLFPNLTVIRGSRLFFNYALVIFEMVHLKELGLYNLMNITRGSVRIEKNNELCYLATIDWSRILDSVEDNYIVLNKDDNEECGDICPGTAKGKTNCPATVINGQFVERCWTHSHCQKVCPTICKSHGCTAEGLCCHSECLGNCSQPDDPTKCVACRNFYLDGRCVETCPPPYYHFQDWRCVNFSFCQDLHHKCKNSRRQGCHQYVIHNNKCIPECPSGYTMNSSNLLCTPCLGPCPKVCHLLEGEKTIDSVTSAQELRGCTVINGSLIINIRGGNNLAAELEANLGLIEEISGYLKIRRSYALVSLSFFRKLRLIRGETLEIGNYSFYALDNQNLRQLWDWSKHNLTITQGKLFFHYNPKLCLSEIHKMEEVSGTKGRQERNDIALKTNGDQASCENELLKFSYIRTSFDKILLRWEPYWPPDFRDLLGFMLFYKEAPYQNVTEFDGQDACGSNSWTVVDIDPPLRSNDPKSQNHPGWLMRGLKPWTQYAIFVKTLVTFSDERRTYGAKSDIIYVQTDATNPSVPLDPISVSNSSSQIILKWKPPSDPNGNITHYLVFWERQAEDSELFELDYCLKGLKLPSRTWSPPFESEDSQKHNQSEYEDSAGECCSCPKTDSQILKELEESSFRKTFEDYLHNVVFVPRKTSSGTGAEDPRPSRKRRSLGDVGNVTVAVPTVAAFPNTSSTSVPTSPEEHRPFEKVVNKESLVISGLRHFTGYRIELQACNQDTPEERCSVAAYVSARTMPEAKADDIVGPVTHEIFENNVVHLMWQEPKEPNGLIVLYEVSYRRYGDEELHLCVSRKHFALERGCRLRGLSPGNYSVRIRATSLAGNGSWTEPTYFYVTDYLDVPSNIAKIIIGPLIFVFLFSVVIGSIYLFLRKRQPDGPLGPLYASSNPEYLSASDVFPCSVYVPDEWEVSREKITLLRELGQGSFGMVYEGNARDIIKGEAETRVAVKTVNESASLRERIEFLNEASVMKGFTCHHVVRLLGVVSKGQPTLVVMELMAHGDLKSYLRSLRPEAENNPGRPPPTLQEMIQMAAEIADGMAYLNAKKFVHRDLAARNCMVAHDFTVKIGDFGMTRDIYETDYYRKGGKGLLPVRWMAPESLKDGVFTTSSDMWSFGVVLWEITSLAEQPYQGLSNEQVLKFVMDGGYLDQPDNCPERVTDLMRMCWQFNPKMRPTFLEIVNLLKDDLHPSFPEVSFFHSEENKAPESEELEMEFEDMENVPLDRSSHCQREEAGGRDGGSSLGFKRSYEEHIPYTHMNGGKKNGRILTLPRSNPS
Experiment: InsR kinase assay
Assay type: biochemical
Conditions: 10 μM compound; read-out: InsR percent of inhibition
How it was run: as §1

| SMILES | inhibition at 10 µM |
| --- | --- |
| Nc1ccc(Nc2ncnc3sc4c(c23)CCCC4)cc1 [Compound 8, N-(5,6,7,8-Tetrahydro-benzo[4,5]thieno[2,3-d]pyrimidin-4-yl)-benzene-1,4-diamine] | 36% |

Biological target: MAPK-ERK1 (Homo sapiens, UniProt P27361)
Sequence (P27361 whole entry): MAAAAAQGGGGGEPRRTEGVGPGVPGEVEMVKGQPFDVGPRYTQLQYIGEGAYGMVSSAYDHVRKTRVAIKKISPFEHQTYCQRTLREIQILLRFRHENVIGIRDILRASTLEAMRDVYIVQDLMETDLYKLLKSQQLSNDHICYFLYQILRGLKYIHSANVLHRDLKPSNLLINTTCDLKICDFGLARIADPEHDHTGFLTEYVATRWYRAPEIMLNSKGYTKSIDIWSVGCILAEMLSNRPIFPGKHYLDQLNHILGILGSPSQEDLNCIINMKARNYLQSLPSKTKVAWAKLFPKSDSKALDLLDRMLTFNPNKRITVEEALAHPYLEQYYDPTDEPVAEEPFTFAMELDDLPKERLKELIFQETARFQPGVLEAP
Experiment: MAPK-ERK1 kinase assay
Assay type: biochemical
Conditions: 10 μM compound; read-out: MAPK-ERK1 percent of inhibition
How it was run: as §1

| SMILES | inhibition at 10 µM |
| --- | --- |
| Nc1ccc(Nc2ncnc3sc4c(c23)CCCC4)cc1 [Compound 8, N-(5,6,7,8-Tetrahydro-benzo[4,5]thieno[2,3-d]pyrimidin-4-yl)-benzene-1,4-diamine] | 12% |

Biological target: P70S6K (Homo sapiens, UniProt P23443)
Experiment: P70S6K kinase assay
Assay type: biochemical
Conditions: 10 μM compound; read-out: P70S6K percent of inhibition
How it was run: as §1

| SMILES | inhibition at 10 µM |
| --- | --- |
| Nc1ccc(Nc2ncnc3sc4c(c23)CCCC4)cc1 [Compound 8, N-(5,6,7,8-Tetrahydro-benzo[4,5]thieno[2,3-d]pyrimidin-4-yl)-benzene-1,4-diamine] | 7% |

Biological target: SRPK1 (Homo sapiens, UniProt Q96SB4)
Experiment: SRPK1 kinase assay
Assay type: biochemical
Conditions: 10 μM compound; read-out: SRPK1 percent of inhibition
How it was run: as §1

| SMILES | inhibition at 10 µM |
| --- | --- |
| Nc1ccc(Nc2ncnc3sc4c(c23)CCCC4)cc1 [Compound 8, N-(5,6,7,8-Tetrahydro-benzo[4,5]thieno[2,3-d]pyrimidin-4-yl)-benzene-1,4-diamine] | -4% |

Biological target: Abl (Homo sapiens, UniProt P00519)
Experiment: Abl kinase assay
Assay type: biochemical
Conditions: 10 μM compound; read-out: Abl percent of inhibition
How it was run: as §1

| SMILES | inhibition at 10 µM |
| --- | --- |
| Nc1ccc(Nc2ncnc3sc4c(c23)CCCC4)cc1 [Compound 8, N-(5,6,7,8-Tetrahydro-benzo[4,5]thieno[2,3-d]pyrimidin-4-yl)-benzene-1,4-diamine] | 19% |

Biological target: CK1-alpha (Homo sapiens, UniProt P48729)
Sequence (P48729 whole entry): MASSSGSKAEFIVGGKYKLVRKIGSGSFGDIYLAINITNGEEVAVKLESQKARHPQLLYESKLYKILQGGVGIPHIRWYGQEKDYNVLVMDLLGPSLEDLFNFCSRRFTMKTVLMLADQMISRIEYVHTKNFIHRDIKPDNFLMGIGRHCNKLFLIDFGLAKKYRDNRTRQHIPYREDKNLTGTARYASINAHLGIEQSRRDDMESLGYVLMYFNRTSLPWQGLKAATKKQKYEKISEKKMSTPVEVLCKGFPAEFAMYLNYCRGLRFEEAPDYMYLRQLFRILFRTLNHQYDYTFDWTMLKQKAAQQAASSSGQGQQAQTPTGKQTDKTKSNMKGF
Experiment: CK1-alpha kinase assay
Assay type: biochemical
Conditions: 10 μM compound; read-out: CK1-alpha percent of inhibition
How it was run: as §1

| SMILES | inhibition at 10 µM |
| --- | --- |
| Nc1ccc(Nc2ncnc3sc4c(c23)CCCC4)cc1 [Compound 8, N-(5,6,7,8-Tetrahydro-benzo[4,5]thieno[2,3-d]pyrimidin-4-yl)-benzene-1,4-diamine] | 4% |

Biological target: AKT1/PKBa (Homo sapiens, UniProt P31749)
Sequence (P31749 whole entry): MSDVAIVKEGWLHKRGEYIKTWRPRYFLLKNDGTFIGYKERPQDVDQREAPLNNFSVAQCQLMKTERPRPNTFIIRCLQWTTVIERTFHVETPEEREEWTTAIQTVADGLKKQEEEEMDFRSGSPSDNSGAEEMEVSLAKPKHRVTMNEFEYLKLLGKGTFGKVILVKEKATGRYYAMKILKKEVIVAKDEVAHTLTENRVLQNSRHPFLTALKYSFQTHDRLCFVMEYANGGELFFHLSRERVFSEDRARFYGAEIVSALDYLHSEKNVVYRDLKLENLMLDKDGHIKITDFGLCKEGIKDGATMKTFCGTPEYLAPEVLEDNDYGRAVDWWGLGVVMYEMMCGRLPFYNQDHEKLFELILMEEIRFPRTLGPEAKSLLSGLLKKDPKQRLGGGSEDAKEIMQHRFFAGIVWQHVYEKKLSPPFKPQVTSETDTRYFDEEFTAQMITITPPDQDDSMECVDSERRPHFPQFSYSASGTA
Experiment: AKT1/PKBa kinase assay
Assay type: biochemical
Conditions: 10 μM compound; read-out: AKT1/PKBa percent of inhibition
How it was run: as §1

| SMILES | inhibition at 10 µM |
| --- | --- |
| Nc1ccc(Nc2ncnc3sc4c(c23)CCCC4)cc1 [Compound 8, N-(5,6,7,8-Tetrahydro-benzo[4,5]thieno[2,3-d]pyrimidin-4-yl)-benzene-1,4-diamine] | 4% |

Biological target: c-Raf (Homo sapiens, UniProt P04049)
Sequence (P04049 whole entry, species assumed): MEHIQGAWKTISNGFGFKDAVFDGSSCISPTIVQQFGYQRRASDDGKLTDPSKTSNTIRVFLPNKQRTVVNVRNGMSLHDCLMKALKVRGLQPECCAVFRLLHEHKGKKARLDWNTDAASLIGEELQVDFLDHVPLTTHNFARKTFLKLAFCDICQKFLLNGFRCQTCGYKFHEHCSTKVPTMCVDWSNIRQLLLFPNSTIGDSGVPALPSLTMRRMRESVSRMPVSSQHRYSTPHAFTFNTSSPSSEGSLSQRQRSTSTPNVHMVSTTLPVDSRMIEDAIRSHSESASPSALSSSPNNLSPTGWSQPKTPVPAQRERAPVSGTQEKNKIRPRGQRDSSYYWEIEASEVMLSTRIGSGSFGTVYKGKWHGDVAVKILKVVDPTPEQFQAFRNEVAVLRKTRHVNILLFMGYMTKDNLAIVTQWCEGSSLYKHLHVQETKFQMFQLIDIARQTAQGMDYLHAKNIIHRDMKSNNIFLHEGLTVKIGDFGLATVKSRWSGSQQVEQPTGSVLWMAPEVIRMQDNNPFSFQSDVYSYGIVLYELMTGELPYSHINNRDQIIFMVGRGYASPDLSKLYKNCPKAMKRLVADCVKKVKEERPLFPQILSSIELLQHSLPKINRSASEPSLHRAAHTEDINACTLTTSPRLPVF
Experiment: c-Raf kinase assay
Assay type: biochemical
Conditions: 10 μM compound; read-out: c-Raf percent of inhibition
How it was run: as §1

| SMILES | inhibition at 10 µM |
| --- | --- |
| Nc1ccc(Nc2ncnc3sc4c(c23)CCCC4)cc1 [Compound 8, N-(5,6,7,8-Tetrahydro-benzo[4,5]thieno[2,3-d]pyrimidin-4-yl)-benzene-1,4-diamine] | 11% |

Biological target: T1, IKK-beta (Homo sapiens, UniProt O14920)
T1 sequence (O14920 1-756): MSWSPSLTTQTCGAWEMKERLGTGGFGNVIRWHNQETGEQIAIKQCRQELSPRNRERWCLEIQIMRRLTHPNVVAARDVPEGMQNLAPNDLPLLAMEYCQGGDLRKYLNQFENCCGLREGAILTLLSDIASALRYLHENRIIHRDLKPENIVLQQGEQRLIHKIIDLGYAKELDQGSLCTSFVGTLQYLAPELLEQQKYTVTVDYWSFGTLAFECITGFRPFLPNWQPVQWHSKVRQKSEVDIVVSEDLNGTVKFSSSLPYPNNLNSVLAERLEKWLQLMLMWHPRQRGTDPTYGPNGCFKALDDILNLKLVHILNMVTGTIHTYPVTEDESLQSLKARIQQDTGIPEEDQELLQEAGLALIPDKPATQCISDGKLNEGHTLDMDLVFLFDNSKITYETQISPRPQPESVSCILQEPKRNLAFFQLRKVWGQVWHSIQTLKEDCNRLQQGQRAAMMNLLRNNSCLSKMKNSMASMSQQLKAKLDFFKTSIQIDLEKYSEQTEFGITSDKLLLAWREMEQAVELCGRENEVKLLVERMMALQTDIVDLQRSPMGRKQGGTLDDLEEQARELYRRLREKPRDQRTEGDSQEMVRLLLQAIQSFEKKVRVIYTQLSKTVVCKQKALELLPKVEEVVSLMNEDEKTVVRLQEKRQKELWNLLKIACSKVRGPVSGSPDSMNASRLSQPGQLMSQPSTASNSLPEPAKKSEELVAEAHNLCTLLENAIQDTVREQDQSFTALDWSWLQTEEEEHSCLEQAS
Experiment: IKK-beta kinase assay
Assay type: biochemical
Conditions: 10 μM compound; read-out: IKK-beta percent of inhibition
How it was run: as §1

| SMILES | inhibition at 10 µM |
| --- | --- |
| Nc1ccc(Nc2ncnc3sc4c(c23)CCCC4)cc1 [Compound 8, N-(5,6,7,8-Tetrahydro-benzo[4,5]thieno[2,3-d]pyrimidin-4-yl)-benzene-1,4-diamine] | 16% |
